Source: PubChem BioAssay (NCI)
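Exposure lasted 48 hours, with cells grown in 96-well plates and compounds tested at five concentrations. Here, GI50 denotes the concentration required for 50% inhibition of growth. TGI denotes the concentration required for complete inhibition of growth.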

Key:
Assay in all cases: NCI-60 cell line screen, 48 h
A549 NSCLC = test system: A549 NSCLC
BT-549 breast = test system: BT-549 breast
CAKI-1 renal = test system: CAKI-1 renal
HOP-62 NSCLC = test system: HOP-62 NSCLC
IGROV1 ovarian = test system: IGROV1 ovarian
MALME-3M melanoma = test system: MALME-3M melanoma
PC-3 prostate = test system: PC-3 prostate
SF-268 CNS = test system: SF-268 CNS
SF-539 CNS = test system: SF-539 CNS
SK-OV-3 ovarian = test system: SK-OV-3 ovarian

Row | SMILES | GI50 (A549 NSCLC) | TGI (A549 NSCLC) | GI50 (BT-549 breast) | TGI (BT-549 breast) | GI50 (CAKI-1 renal) | TGI (CAKI-1 renal) | GI50 (HOP-62 NSCLC) | TGI (HOP-62 NSCLC) | GI50 (IGROV1 ovarian) | TGI (IGROV1 ovarian) | GI50 (MALME-3M melanoma) | TGI (MALME-3M melanoma) | GI50 (PC-3 prostate) | TGI (PC-3 prostate) | GI50 (SF-268 CNS) | TGI (SF-268 CNS) | GI50 (SF-539 CNS) | TGI (SF-539 CNS) | GI50 (SK-OV-3 ovarian) | TGI (SK-OV-3 ovarian)
1 | Cc1ccc(CN2CCC(C(=O)Nc3ccc(-c4cc5ccccc5[nH]4)cc3)CC2)o1 | > 100 µM | > 100 µM | > 100 µM | > 100 µM | > 100 µM | > 100 µM | 55.8 µM | > 100 µM | > 100 µM | > 100 µM | > 100 µM | > 100 µM | > 100 µM | > 100 µM | > 100 µM | > 100 µM | > 100 µM | > 100 µM | > 100 µM | > 100 µM
2 | Fc1ccc(NC(=S)SCc2ccc3c(c2)OCO3)cc1F |  | 44.6 µM |  | 51.4 µM |  | > 100 µM |  | > 100 µM |  | 39.6 µM |  | 76.3 µM |  | 76.6 µM |  | 52.8 µM |  | 53.5 µM |  | > 100 µM
3 | CCOC(=O)Cn1c(C(F)(F)F)nc2nc(Cl)c(Cl)nc21 |  | > 100 µM |  | > 100 µM |  | 11.5 µM |  | 60.4 µM |  | > 76.6 µM |  | > 100 µM |  | > 100 µM |  | > 100 µM |  | > 85.4 µM |  | > 100 µM
4 | C=CC(=O)Nc1cc(Nc2ncc(C(=O)OC(C)C)c(-c3cn(C)c4ccccc34)n2)c(OC)cc1N(C)CCN(C)C | 2.89 µM | 21.5 µM | 7.41 µM | 21.4 µM | 1.32 µM | 9.32 µM | 7.13 µM | 22.8 µM | 0.399 µM | 3.12 µM | 1.69 µM | 3.24 µM | 3.19 µM | 9.54 µM | 6.88 µM | 24.1 µM | 3.1 µM | 9.45 µM | < 0.01 µM | 16.7 µM
5 | C=C(C)C(OC)C(O)CC1(C)CC(O)CC(C)(C2CCC3OC(C4(C)CCC(Br)C(C)(C)O4)CCC3(C)O2)O1 (stereo not given) | 21 µM | > 58 µM | 19.9 µM | 38.4 µM | 18.1 µM | 38.3 µM | 17.4 µM | 32.6 µM | 24 µM | > 57.1 µM | 14.9 µM | 32.5 µM | 15.4 µM | 32.4 µM | 18.9 µM | 40.3 µM | 18.9 µM | 36.5 µM | 22.8 µM | 54.3 µM
6 | CC(C)=CCC\C(C)=C/C=C/C(C)=C\C=C\C(C)=C/C=C/C=C(C)\C=C\C=C(C)/C=C/C=C(/C)CCC=C(C)C |  | > 100 µM |  | > 100 µM |  | > 100 µM |  | > 100 µM |  | > 100 µM |  | > 100 µM |  | > 100 µM |  | > 100 µM |  | > 100 µM |  | > 100 µM
7 | O=C(Nc1ccc(-n2ccc3c(NC(=O)c4ccccc4)nccc32)cc1)c1ccc(Cl)c(C(F)(F)F)c1 | 0.318 µM | 8.45 µM | 6.5 µM | > 50 µM | 0.305 µM | 11.8 µM | 3.4 µM | 13.2 µM | 1.55 µM | 15.3 µM | 4.13 µM | 14.7 µM | 2.56 µM | 24.8 µM | 1.08 µM | 11.9 µM | 0.273 µM | 14.4 µM | 1.18 µM | 20.7 µM
8 | O=C1NC(=NCCc2cccc(F)c2)S/C1=C\c1ccc2ncccc2c1 | 1.55 µM | > 25 µM | 10.6 µM | > 25 µM | 2.43 µM | > 25 µM | 2.15 µM | > 25 µM | 5.15 µM | > 25 µM | 17.2 µM | > 25 µM | > 25 µM | > 25 µM | 10.7 µM | > 25 µM | 1.59 µM | > 25 µM | 4.38 µM | > 25 µM
9 | Cc1ccc2c(C)c3c(ccc4ccccc43)c[n+]2c1 | 3.85 µM | > 100 µM | 3.57 µM | 16.6 µM | 40.5 µM | > 100 µM | 5.93 µM | 24.7 µM | 9.28 µM | 80.1 µM | 1.96 µM | 5.69 µM | 7.15 µM | 41 µM | 2.87 µM | 15.9 µM | 13.8 µM | 28.2 µM | 18.6 µM | 57.2 µM
10 | CC1CCc2nc[nH]c(=O)c21 (stereo not given) | > 100 µM | > 100 µM | > 100 µM | > 100 µM | > 100 µM | > 100 µM | > 100 µM | > 100 µM | > 100 µM | > 100 µM | > 100 µM | > 100 µM | > 100 µM | > 100 µM | > 100 µM | > 100 µM | > 100 µM | > 100 µM | > 100 µM | > 100 µM
11 | NS(=O)(=O)c1ccc2c(c1)OCCOCCOCCOCCO2 |  | > 100 µM |  | > 100 µM |  | > 100 µM |  | > 100 µM |  | > 100 µM |  | > 100 µM |  | > 100 µM |  | > 100 µM |  | > 100 µM |  | > 100 µM
12 | NS(=O)(=O)OC[C@@H]1C[C@@H](n2ccc3c(NC4CCc5ccccc54)ncnc32)C[C@@H]1O (stereo not given in full) | 0.797 µM | 47.7 µM | 22.8 µM | > 95.7 µM | 0.52 µM | > 100 µM | 3.23 µM | > 46.9 µM | 7.83 µM | > 100 µM | 21.9 µM | > 92.8 µM | 17 µM | > 100 µM | 0.548 µM | > 100 µM | 1.28 µM | 20.3 µM | 9.36 µM | > 93.9 µM
